For one test, the target named is T1, human RORγt (Homo sapiens, UniProt P51449).
T1 construct: Gal4-DBD human RORγt hinge LBD/pcDNA 3.1; expressed in transfected cells; host or cells: HEK293
The test is described as follows: RORγ transactivation assay in transfected HEK293 cells. The settings on record: HEK293, n = 4; read-out: potency, inhibition of human RORγt in transactivation assay. The test is classed as cell-based. Here is the method:
For RORg transactivation assay the HEK293 cells were seeded in 100 mm dish and transfected with 4.5 µg total DNA (2.25 µg of pGL4.31 Luc2/GAL4-UAS hygro and 2.25 µg Gal4-DBD human RORγt hinge LBD/pcDNA 3.1 and 0.112 µg of pRL-CMV using Effectene transfection reagent (Qiagen). After 16–20 h post transfection, cells were reseeded at the density of 0.05 M cells per well of 96 well plate in DMEM high glucose containing 2% charcoal stripped serum. 4–6 h post seeding, PCCR-1 treatment was given for 24 h, followed by cells lysis with 1X Passive Lysis buffer of Dual luciferase kit (Promega). The signal was detected after addition of stop and glo reagent of the kit in luminescence mode.

The subject of test [1] is IL-17 release in mouse peritoneal neutrophils. The test is described as follows: IL-17 release, mouse peritoneal neutrophils, LPS. The test is classed as cell-based. The settings on record: Neutrophil, n = 2, read-out: potency, IL-17 release inhibition. Here is the method: (§1) The peritoneal neutrophils or macrophages were isolated from C57BL/6 male mice or BALB/c female mice (6–8 wks; 18–22 g) injected with 3% or 4% thioglycollate broth. After 4 h or 4 days, RPMI medium was injected into the peritoneal cavity of mouse and peritoneal lavage was collected. The lavage was pooled and spun at 800 rpm for 10 min. The pellet was re-suspended in 1X Gey’s solution for 5 min followed by PBS wash. In case of neutrophils, the isolated cells were seeded in 48 well plate for 1.5 h. After 1.5 h, the supernatant containing peritoneal neutrophils were collected and centrifuged at 2000 rpm for 10 min and the pellet were re-suspended in 2% RPMI. In case of isolated peritoneal macrophages, the cells were seeded in 48 well plate for 3–4 h followed by PBS wash. Both the neutrophils and macrophages were treated with PCCR-1 in 2% RPMI for 1 h followed by stimulation with 10 µg/ml or 5 µg/ml of LPS for 18 h or 24 h. The supernatant collected for IL-17 estimation by ELISA.

The subject of test [2] is IL-17 in peritoneal macrophages. Nature of the test: IL-17 release, mouse peritoneal macrophages, LPS. The test is classed as cell-based. The following applies: Peritoneal macrophage, n = 2, read-out: IC50, IL-17 inhibition. Here is the method:
as §1

In the next test the target is RORα (Homo sapiens, UniProt P35398). The test is described as follows: Transactivation assay, Gal4 DBD luciferase reporter (Indigo). The test is classed as cell-based. The source says:
(§2) Based on the homology of the ligand binding domains, 3 different isoforms of ROR (hRORα, hRORβ and hRORγ) are reported. Small variations in the LBD regions possibly lead to differences in competitive binding between the nuclear receptors of the ROR isoforms (Fig. 1b). Similar to the assessment of RORγ binding assay, TR-FRET binding assays were also used to assess the affinity of PCCR-1 for other ROR isoforms. […] This was reconfirmed in cellular functional assays for the selected isoforms and nuclear receptors using Gal4 DBD with luciferase reporter system from Indigo (PA, USA). […] In addition, both cellular agonist and antagonist effects as well as for enzyme activity were evaluated with a known reference compound for each target, using a radiolabeled method (Eurofins Cerep, France, Table 1).

The test system of test [3] is Nuclear receptors (RORα, RARα, LXRα, LXRβ, RXR, FXR). Nature of the test: Cerep panel, nuclear receptors: binding assays. More on the design: key: NSE No significant effect; V wk very weak (very low-level agonist activity seen with mPPARγ). The settings on record: at 10 µM.
From the text: as §2

A further test relates to hFXR. The test is described as follows: Nuclear receptors: functional assay, hFXR antagonism. The test is classed as cell-based, human. The following applies: nuclear receptors: functional assays.
From the text: as §2

The subject of test [4] is total leukocytes, neutrophils and macrophages in BAL fluid of cigarette smoke exposed mice. The test is described as follows: Acute cigarette smoke induced pulmonary inflammation mice model. The test is classed as in vivo, mouse. The source says: Cigarette smoke exposure for 7 days caused significant increase in the total cell count in BAL fluid, including leukocytes, neutrophils and macrophages as compared to an air exposed control group.
Male C57BL/6 mice aged 8–10 weeks were obtained from the animal facility of Glenmark Pharmaceuticals Ltd. All animal experiments were approved by IAEC (institutional Animal Ethics Committee) as per the guideline set up by The Committee for the Purpose of Control and Supervision of Experiments on Animals (CPCSEA), India (CPCSEA is a statutory Committee of Department of Animal Husbandry and Dairying (DAHD), Ministry of Fisheries, Animal Husbandry and Dairying (MoFAH&D), India and constituted under the Prevention of Cruelty to Animals (PCA) Act, 1960., India). All animal experiments and procedures were performed in accordance with CPCSEA and IAEC guidelines and regulations (Registration number 231/2000/CPCSEA).In addition to that, all animal experimentation complies with the guidelines of Animal Research: Reporting In Vivo Experiments (ARRIVE). Male C57BL/6 mice were exposed to either room air or cigarette smoke (CS) from 10 cigarettes (Kentucky Research Cigarettes 3R4F) for 50 min, twice daily for 7 days in a whole body box exposure system (SIU24, ProMech Lab Holding AB, Sweden). […] All aspirates of BAL were pooled and total number of cells were determined using a hemocytometer. […]

pIC50: −log10 of the molar value.

Sequence of RORα (P35398 272-523 limits assumed): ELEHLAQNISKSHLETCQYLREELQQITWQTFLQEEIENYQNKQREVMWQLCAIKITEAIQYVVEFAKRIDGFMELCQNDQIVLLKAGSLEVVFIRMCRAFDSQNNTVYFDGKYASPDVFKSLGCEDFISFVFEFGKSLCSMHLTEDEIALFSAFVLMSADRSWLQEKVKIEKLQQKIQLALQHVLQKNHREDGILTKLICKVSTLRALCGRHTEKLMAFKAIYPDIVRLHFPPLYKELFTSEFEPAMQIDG
T1 sequence (P51449 97-518): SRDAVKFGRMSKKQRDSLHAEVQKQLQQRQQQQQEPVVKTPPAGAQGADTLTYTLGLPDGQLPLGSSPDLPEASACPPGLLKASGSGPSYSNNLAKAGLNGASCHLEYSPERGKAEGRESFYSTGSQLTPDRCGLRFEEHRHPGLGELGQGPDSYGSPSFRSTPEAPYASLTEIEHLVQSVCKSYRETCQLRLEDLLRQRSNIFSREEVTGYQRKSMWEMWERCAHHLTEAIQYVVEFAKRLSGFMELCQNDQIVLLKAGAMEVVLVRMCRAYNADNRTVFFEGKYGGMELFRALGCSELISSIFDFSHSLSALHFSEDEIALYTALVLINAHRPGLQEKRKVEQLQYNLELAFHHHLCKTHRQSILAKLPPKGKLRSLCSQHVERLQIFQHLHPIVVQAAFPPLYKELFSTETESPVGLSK

Regarding `CCn1c(C(C)(C)Oc2ccc(F)cc2F)nc2cc(NC(=O)Cc3ccc(S(=O)(=O)CC)cc3)ccc21` [PCCR-1], the pIC50 at human RORγt is 6.95; in test [1], 6.61; in test [2], 5.86. Moreover, on RORα, the “effect in transactivation assays for RORα inhibition” value is on record as “no effect”. In test [3], the “Nuclear receptors: binding assays (RORα, RARα, LXRα, LXRβ, RXR, FXR)” value is “NSE at 10 µM”. The “hFXR (antagonism)” value in the test with hFXR is on record as around 10 µM. For the same compound, the “inhibition of total leukocytes in BAL fluid” value in test [4] (intranasal once a day for 7 days, between 1 µg and 50 µg/animal) was “dose dependent inhibition”. The “cigarette smoke mediated increase in neutrophil and macrophage counts in BAL fluid” value in test [4] (intranasal, 10, 30, 50 and 100 µg per mouse) was “significantly obtunded”.

The record behind these values is publication PMC9130233, “An inhibitor of RORγ for chronic pulmonary obstructive disease treatment” (Scientific Reports, 2022).
